Data published in PubChem BioAssay (NCI).
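All cell lines were grown in 96-well plates and treated with compound for 48 hours. GI50 is the concentration that inhibits growth by half. At the TGI there is no net growth.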

What was measured:
Experiment in all cases: NCI tumour cell line growth inhibition, 48 h
[1] = test system: 786-0 renal
[2] = test system: A498 renal
[3] = test system: A549 NSCLC
[4] = test system: ACHN renal
[5] = test system: BT-549 breast
[6] = test system: CAKI-1 renal
[7] = test system: CCRF-CEM leukemia
[8] = test system: COLO 205 colon
[9] = test system: DU-145 prostate
[10] = test system: EKVX NSCLC
[11] = test system: HCC-2998 colon
[12] = test system: HCT-116 colon
[13] = test system: HCT-15 colon
[14] = test system: HL-60(TB) leukemia
[15] = test system: HOP-62 NSCLC
[16] = test system: HOP-92 NSCLC
[17] = test system: HS 578T breast
[18] = test system: HT29 colon
[19] = test system: IGROV1 ovarian
[20] = test system: K-562 leukemia
[21] = test system: KM12 colon
[22] = test system: LOX IMVI melanoma
[23] = test system: M14 melanoma
[24] = test system: MALME-3M melanoma
[25] = test system: MCF7 breast
[26] = test system: MDA-MB-231 breast
[27] = test system: MDA-MB-435
[28] = test system: MDA-MB-468 breast
[29] = test system: MOLT-4 leukemia
[30] = test system: NCI-H226 lung
[31] = test system: NCI-H23 lung
[32] = test system: NCI-H460 lung
[33] = test system: NCI-H522 lung
[34] = test system: NCI/ADR-RES ovarian
[35] = test system: OVCAR-3 ovarian
[36] = test system: OVCAR-4 ovarian
[37] = test system: OVCAR-5 ovarian
[38] = test system: OVCAR-8 ovarian
[39] = test system: PC-3 prostate
[40] = test system: RPMI-8226 leukemia
[41] = test system: RXF 393 renal
[42] = test system: SF-268 CNS
[43] = test system: SF-295 CNS
[44] = test system: SF-539 CNS
[45] = test system: SK-MEL-2 melanoma
[46] = test system: SK-MEL-28 melanoma
[47] = test system: SK-MEL-5 melanoma
[48] = test system: SK-OV-3 ovarian
[49] = test system: SN12C renal
[50] = test system: SNB-19 CNS
[51] = test system: SNB-75 CNS
[52] = test system: SR leukemia
[53] = test system: SW-620 colon
[54] = test system: T-47D breast
[55] = test system: TK-10 renal
[56] = test system: U251 CNS
[57] = test system: UACC-257 melanoma
[58] = test system: UACC-62 melanoma
[59] = test system: UO-31 renal

`Cn1ncc2c(N)nc(Oc3ccccc3-c3ccccc3)nc21` gave a GI50 [1] of 26.4 µM, a TGI [1] greater than 100 µM and a GI50 [2] of 62.2 µM. It also gave a TGI [2] greater than 100 µM, a GI50 [3] of 6.74 µM and a TGI [3] greater than 100 µM. It also gave a GI50 [4] of 20.6 µM, a TGI [4] greater than 100 µM and a GI50 [5] of 4.28 µM. For the same compound, the TGI [5] was 37.6 µM, the GI50 [6] was 7.72 µM and the TGI [6] was greater than 100 µM. It also gave a GI50 [7] of 3.73 µM, a TGI [7] of 46.3 µM and a GI50 [8] of 7.05 µM. For the same compound, the TGI [8] was greater than 100 µM, the GI50 [9] was 32.3 µM and the TGI [9] was greater than 100 µM. For the same compound, the GI50 [10] was 9.41 µM, the TGI [10] was greater than 100 µM and the GI50 [11] was 10.2 µM. The TGI [11] was greater than 100 µM, the GI50 [12] was 4.53 µM and the TGI [12] was greater than 100 µM. For the same compound, the GI50 [13] was 3.79 µM, the TGI [13] was greater than 100 µM and the GI50 [14] was 3.93 µM. For the same compound, the TGI [14] was 30.5 µM, the GI50 [15] was 32 µM and the TGI [15] was greater than 100 µM. The GI50 [16] was 14.3 µM, the TGI [16] was greater than 100 µM and the GI50 [17] was 5.73 µM. For the same compound, the TGI [17] was 41.4 µM, the GI50 [18] was 3.4 µM and the TGI [18] was 34.6 µM. The GI50 [19] was 8.02 µM, the TGI [19] was greater than 100 µM and the GI50 [20] was 3.44 µM. The TGI [20] was greater than 100 µM, the GI50 [21] was 4.82 µM and the TGI [21] was greater than 100 µM. For the same compound, the GI50 [22] was 7.01 µM, the TGI [22] was greater than 100 µM and the GI50 [23] was 4.54 µM. It also gave a TGI [23] greater than 100 µM, a GI50 [24] of 4.3 µM and a TGI [24] greater than 100 µM. For the same compound, the GI50 [25] was 3.66 µM, the TGI [25] was greater than 100 µM and the GI50 [26] was 4.54 µM. It also gave a TGI [26] greater than 100 µM, a GI50 [27] of 1990 nM and a TGI [27] of 5.44 µM. The GI50 [28] was 1740 nM, the TGI [28] was 4.92 µM and the GI50 [29] was 4.22 µM. It also gave a TGI [29] of 34.7 µM, a GI50 [30] of 6.65 µM and a TGI [30] of 97.2 µM. It also gave a GI50 [31] of 8.54 µM, a TGI [31] greater than 100 µM and a GI50 [32] of 3.87 µM. For the same compound, the TGI [32] was greater than 100 µM, the GI50 [33] was 2210 nM and the TGI [33] was 7.03 µM. The GI50 [34] was 3.26 µM, the TGI [34] was 17.5 µM and the GI50 [35] was 6.61 µM. It also gave a TGI [35] greater than 100 µM, a GI50 [36] of 19.3 µM and a TGI [36] greater than 100 µM. It also gave a GI50 [37] of 6.5 µM, a TGI [37] greater than 100 µM and a GI50 [38] of 13.1 µM. It also gave a TGI [38] of 65.1 µM, a GI50 [39] of 13.3 µM and a TGI [39] greater than 100 µM. For the same compound, the GI50 [40] was 3.94 µM, the TGI [40] was 27.4 µM and the GI50 [41] was 10.3 µM. It also gave a TGI [41] of 47 µM, a GI50 [42] of 23.7 µM and a TGI [42] greater than 100 µM. It also gave a GI50 [43] of 6.11 µM, a TGI [43] greater than 100 µM and a GI50 [44] of 7.68 µM. It also gave a TGI [44] greater than 100 µM, a GI50 [45] of 4.36 µM and a TGI [45] greater than 100 µM. It also gave a GI50 [46] of 8.4 µM, a TGI [46] greater than 100 µM and a GI50 [47] of 3.64 µM. The TGI [47] was 18.2 µM, the GI50 [48] was 30.3 µM and the TGI [48] was greater than 100 µM. The GI50 [49] was 7.43 µM, the TGI [49] was greater than 100 µM and the GI50 [50] was 29.3 µM. The TGI [50] was greater than 100 µM, the GI50 [51] was 3.75 µM and the TGI [51] was 34.2 µM. It also gave a GI50 [52] of 2910 nM, a TGI [52] greater than 100 µM and a GI50 [53] of 3.89 µM. The TGI [53] was greater than 100 µM, the GI50 [54] was 4.91 µM and the TGI [54] was greater than 100 µM. The GI50 [55] was 19.7 µM, the TGI [55] was greater than 100 µM and the GI50 [56] was 4.77 µM. It also gave a TGI [56] greater than 100 µM, a GI50 [57] of 8.36 µM and a TGI [57] greater than 100 µM. It also gave a GI50 [58] of 4.1 µM, a TGI [58] of 36.7 µM and a GI50 [59] of 11.4 µM. It also gave a TGI [59] greater than 100 µM.
